Measurements from PubChem BioAssay (NCI).
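Interpolation was linear, between the two tested concentrations surrounding the appropriate level; five concentrations were tested over 48 hours in 96-well plates. Here, GI50 denotes the concentration required for 50% inhibition of growth. TGI denotes the concentration required for complete inhibition of growth.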

How the values were obtained:
Test in all cases: NCI tumour cell line growth inhibition, 48 h
[1] = system: SK-MEL-5 melanoma
[2] = system: K-562 leukemia
[3] = system: HCC-2998 colon
[4] = system: SK-OV-3 ovarian
[5] = system: HCT-15 colon
[6] = system: SR leukemia
[7] = system: NCI/ADR-RES ovarian
[8] = system: RPMI-8226 leukemia
[9] = system: M14 melanoma
[10] = system: UACC-62 melanoma
[11] = system: ACHN renal
[12] = system: LOX IMVI melanoma
[13] = system: SN12C renal
[14] = system: PC-3 prostate
[15] = system: MALME-3M melanoma
[16] = system: NCI-H522 lung
[17] = system: HL-60(TB) leukemia
[18] = system: DU-145 prostate
[19] = system: SNB-75 CNS
[20] = system: OVCAR-5 ovarian
[21] = system: OVCAR-8 ovarian
[22] = system: A549 NSCLC
[23] = system: SNB-19 CNS
[24] = system: SF-268 CNS
[25] = system: UACC-257 melanoma
[26] = system: HS 578T breast
[27] = system: 786-0 renal
[28] = system: CCRF-CEM leukemia
[29] = system: SW-620 colon
[30] = system: A498 renal
[31] = system: IGROV1 ovarian
[32] = system: MDA-MB-231 breast
[33] = system: HT29 colon
[34] = system: MDA-MB-435
[35] = system: NCI-H226 lung
[36] = system: OVCAR-4 ovarian
[37] = system: HOP-62 NSCLC
[38] = system: T-47D breast
[39] = system: NCI-H23 lung
[40] = system: RXF 393 renal
[41] = system: BT-549 breast
[42] = system: SK-MEL-28 melanoma
[43] = system: MCF7 breast
[44] = system: HOP-92 NSCLC
[45] = system: UO-31 renal
[46] = system: KM12 colon
[47] = system: COLO 205 colon
[48] = system: MOLT-4 leukemia
[49] = system: SF-539 CNS
[50] = system: SK-MEL-2 melanoma
[51] = system: CAKI-1 renal
[52] = system: OVCAR-3 ovarian
[53] = system: U251 CNS
[54] = system: NCI-H460 lung
[55] = system: SF-295 CNS
[56] = system: HCT-116 colon

Work on O=C1/C(=C/c2ccc(Cl)cc2Cl)CN(S(=O)(=O)c2ccccc2)C/C1=C\c1ccc(Cl)cc1Cl yielded a GI50 [1] of 14500 nM, a TGI [1] greater than 100000 nM and a GI50 [2] of 326 nM. For the same molecule, the TGI [2] was greater than 38300 nM, the GI50 [3] was 379 nM and the TGI [3] was 1310 nM. The GI50 [4] was 7320 nM, the TGI [4] was 98900 nM and the GI50 [5] was 226 nM. The TGI [5] was 614 nM, the GI50 [6] was 198 nM and the TGI [6] was 925 nM. For the same molecule, the GI50 [7] was 1150 nM, the TGI [7] was greater than 100000 nM and the GI50 [8] was 196 nM. For the same molecule, the TGI [8] was 562 nM, the GI50 [9] was 2770 nM and the TGI [9] was greater than 100000 nM. It also gave a GI50 [10] of 1180 nM, a TGI [10] of 4410 nM and a GI50 [11] of 717 nM. The TGI [11] was 6880 nM, the GI50 [12] was 193 nM and the TGI [12] was 395 nM. The GI50 [13] was 288 nM, the TGI [13] was 1100 nM and the GI50 [14] was 299 nM. For the same molecule, the TGI [14] was 979 nM, the GI50 [15] was 7200 nM and the TGI [15] was greater than 100000 nM. The GI50 [16] was 1130 nM, the TGI [16] was 3930 nM and the GI50 [17] was 731 nM. The TGI [17] was greater than 19900 nM, the GI50 [18] was 466 nM and the TGI [18] was 19700 nM. It also gave a GI50 [19] of 473 nM, a TGI [19] of 8200 nM and a GI50 [20] of 1020 nM. For the same molecule, the TGI [20] was 4650 nM, the GI50 [21] was 313 nM and the GI50 [22] was 316 nM. It also gave a TGI [22] of 1510 nM, a GI50 [23] of 496 nM and a TGI [23] of 10800 nM. It also gave a GI50 [24] of 385 nM, a TGI [24] greater than 35700 nM and a GI50 [25] of 17700 nM. The TGI [25] was greater than 100000 nM, the GI50 [26] was 322 nM and the TGI [26] was 3870 nM. The GI50 [27] was 230 nM, the TGI [27] was 509 nM and the GI50 [28] was 291 nM. It also gave a TGI [28] of 1300 nM, a GI50 [29] of 314 nM and a TGI [29] of 2540 nM. The GI50 [30] was 1500 nM, the TGI [30] was 8760 nM and the GI50 [31] was 344 nM. It also gave a TGI [31] of 1290 nM, a GI50 [32] of 469 nM and a TGI [32] of 2670 nM. For the same molecule, the GI50 [33] was 301 nM, the TGI [33] was 907 nM and the GI50 [34] was 701 nM. The TGI [34] was 2890 nM, the GI50 [35] was 513 nM and the TGI [35] was 1350 nM. It also gave a GI50 [36] of 291 nM, a TGI [36] greater than 96000 nM and a GI50 [37] of 343 nM. The GI50 [38] was 594 nM, the GI50 [39] was 381 nM and the TGI [39] was 2400 nM. The GI50 [40] was 1050 nM, the TGI [40] was 2680 nM and the GI50 [41] was 617 nM. It also gave a TGI [41] of 2640 nM, a GI50 [42] of 8290 nM and a TGI [42] greater than 100000 nM. It also gave a GI50 [43] of 292 nM, a TGI [43] greater than 100000 nM and a GI50 [44] of 1700 nM. It also gave a TGI [44] of 5550 nM, a GI50 [45] of 233 nM and a TGI [45] of 675 nM. For the same molecule, the GI50 [46] was 276 nM, the TGI [46] was 728 nM and the GI50 [47] was 339 nM. For the same molecule, the TGI [47] was 1210 nM, the GI50 [48] was 460 nM and the TGI [48] was 12000 nM. It also gave a GI50 [49] of 315 nM, a TGI [49] of 1130 nM and a GI50 [50] of 15400 nM. The TGI [50] was greater than 100000 nM, the GI50 [51] was 817 nM and the TGI [51] was 4220 nM. It also gave a GI50 [52] of 259 nM, a TGI [52] of 620 nM and a GI50 [53] of 173 nM. It also gave a TGI [53] of 351 nM, a GI50 [54] of 224 nM and a TGI [54] of 498 nM. The GI50 [55] was 279 nM, the TGI [55] was 1990 nM and the GI50 [56] was 198 nM. The TGI [56] was 421 nM.

Molecule O=C1Nc2ccccc2/C1=C/C(=N/c1nnc(-c2ccc(Cl)cc2)s1)c1ccccc1 has a GI50 [1] of 12600 nM, a TGI [1] of 26900 nM and a GI50 [2] of 1750 nM. It also gave a TGI [2] of 11400 nM, a GI50 [3] of 8110 nM and a TGI [3] of 20900 nM. The GI50 [4] was 5860 nM, the TGI [4] was 17400 nM and the GI50 [5] was 1400 nM. For the same molecule, the TGI [5] was 3280 nM, the GI50 [6] was 964 nM and the TGI [6] was 6050 nM. The GI50 [7] was 3310 nM, the TGI [7] was 12200 nM and the GI50 [8] was 2070 nM. The TGI [8] was 5400 nM, the GI50 [9] was 2370 nM and the TGI [9] was 6280 nM. It also gave a GI50 [10] of 1930 nM, a TGI [10] of 4580 nM and a GI50 [11] of 1410 nM. It also gave a TGI [11] of 2830 nM, a GI50 [12] of 1540 nM and a TGI [12] of 3130 nM. For the same molecule, the GI50 [13] was 2160 nM, the TGI [13] was 5970 nM and the GI50 [14] was 1930 nM. It also gave a TGI [14] of 5880 nM, a GI50 [15] of 2070 nM and a TGI [15] of 6180 nM. The GI50 [16] was 518 nM, the TGI [16] was 1210 nM and the GI50 [17] was 1780 nM. The TGI [17] was 5540 nM, the GI50 [18] was 2520 nM and the TGI [18] was 6900 nM. The GI50 [19] was 2530 nM, the TGI [19] was 13700 nM and the GI50 [20] was 1810 nM. The TGI [20] was 4860 nM, the GI50 [21] was 2810 nM and the TGI [21] was 10100 nM. The GI50 [22] was 7780 nM, the TGI [22] was 23800 nM and the GI50 [23] was 12600 nM. The TGI [23] was 25400 nM, the GI50 [24] was 4250 nM and the TGI [24] was 16300 nM. The GI50 [25] was 2820 nM, the TGI [25] was 8640 nM and the GI50 [26] was 3250 nM. It also gave a TGI [26] of 16000 nM, a GI50 [27] of 1720 nM and a TGI [27] of 3400 nM. The GI50 [28] was 1160 nM, the TGI [28] was 4280 nM and the GI50 [29] was 1210 nM. For the same molecule, the TGI [29] was 2820 nM, the GI50 [30] was 9030 nM and the TGI [30] was 26100 nM. It also gave a GI50 [31] of 2100 nM, a TGI [31] of 5590 nM and a GI50 [32] of 2140 nM. The TGI [32] was 6210 nM, the GI50 [33] was 1940 nM and the TGI [33] was 5610 nM. It also gave a GI50 [34] of 2550 nM, a TGI [34] of 7230 nM and a GI50 [35] of 3190 nM. The TGI [35] was 13400 nM, the GI50 [36] was 2560 nM and the TGI [36] was 12200 nM. For the same molecule, the GI50 [37] was 7160 nM, the TGI [37] was 21500 nM and the GI50 [38] was 2310 nM. For the same molecule, the TGI [38] was 10200 nM, the GI50 [39] was 2960 nM and the TGI [39] was 11200 nM. It also gave a GI50 [40] of 1500 nM, a TGI [40] of 3070 nM and a GI50 [41] of 1790 nM. It also gave a TGI [41] of 3660 nM, a GI50 [42] of 2360 nM and a TGI [42] of 5590 nM. It also gave a GI50 [43] of 2360 nM, a TGI [43] of 10800 nM and a GI50 [44] of 969 nM. For the same molecule, the TGI [44] was 3030 nM, the GI50 [45] was 1400 nM and the TGI [45] was 3480 nM. It also gave a GI50 [46] of 4850 nM, a TGI [46] of 15600 nM and a GI50 [47] of 1770 nM. The TGI [47] was 3400 nM, the GI50 [48] was 2270 nM and the TGI [48] was 6010 nM. It also gave a GI50 [49] of 1810 nM, a TGI [49] of 4080 nM and a GI50 [50] of 3210 nM. For the same molecule, the TGI [50] was 9320 nM, the GI50 [51] was 1430 nM and the TGI [51] was 4920 nM. For the same molecule, the GI50 [52] was 1260 nM, the TGI [52] was 2660 nM and the GI50 [53] was 4040 nM. For the same molecule, the TGI [53] was 15500 nM, the GI50 [54] was 5950 nM and the TGI [54] was 21900 nM. For the same molecule, the GI50 [55] was 11600 nM, the TGI [55] was 25600 nM and the GI50 [56] was 1060 nM. It also gave a TGI [56] of 2380 nM.
